Source: BindingDB's records for doi:10.1074/jbc.M607913200 (Incyte, 2006)
Non-standard residues stand in square brackets, D forms with d. Residues, ends and D or L forms follow the SMILES beside them. F2Pmp = N[C@@H](Cc1ccc(C(F)(F)P(=O)(O)O)cc1)C(=O)O

biological target: T1, Tyrosine-protein phosphatase non-receptor type 1 [1-298] (Homo sapiens, UniProt P18031); test: Phosphatase Inhibition Assay; conditions: not given
T1 construct: 1-298
T1 sequence (P18031 whole entry): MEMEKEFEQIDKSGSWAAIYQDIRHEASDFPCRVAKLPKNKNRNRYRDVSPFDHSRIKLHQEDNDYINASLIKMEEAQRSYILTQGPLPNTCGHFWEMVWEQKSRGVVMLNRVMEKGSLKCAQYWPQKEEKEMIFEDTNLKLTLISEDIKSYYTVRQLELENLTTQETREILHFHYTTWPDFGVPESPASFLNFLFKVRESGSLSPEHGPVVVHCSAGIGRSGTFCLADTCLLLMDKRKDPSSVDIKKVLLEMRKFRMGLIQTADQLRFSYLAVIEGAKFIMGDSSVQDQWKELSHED

| Compound | IC50 [nM] |
| --- | --- |
| Cc1ccc2nc(N[C@@H](Cc3ccc([C@@H]4CC(=O)NS4(=O)=O)cc3)c3nc4ccccc4[nH]3)sc2c1 [(5S)-5-{4-[(2S)-2-(1H-1,3-benzodiazol-2-yl)-2-[(6-methyl-1,3-benzothiazol-2-yl)amino]ethyl]phenyl}-1,2-thiazolidine-1,1,3-trione] | 1100 |
| O=C1CC(c2ccc(C[C@H](NS(=O)(=O)c3ccccc3)c3nc4ccccc4[nH]3)cc2Br)S(=O)(=O)N1 (stereo partly drawn) [N-[(1S)-1-(1H-1,3-benzodiazol-2-yl)-2-[3-bromo-4-(1,1,3-trioxo-1,2-thiazolidin-5-yl)phenyl]ethyl]benzenesulfonamide] | 170 |
| O=C1CC(c2ccc(C[C@H](NS(=O)(=O)c3ccccc3)c3nc4ccccc4[nH]3)cc2Cl)S(=O)(=O)N1 (stereo partly drawn) [N-[(1S)-1-(1H-1,3-benzodiazol-2-yl)-2-[3-chloro-4-(1,1,3-trioxo-1,2-thiazolidin-5-yl)phenyl]ethyl]benzenesulfonamide] | 75 |
| N#Cc1cc(C[C@H](NS(=O)(=O)c2ccccc2)c2nc3ccccc3[nH]2)ccc1C1CC(=O)NS1(=O)=O (stereo partly drawn) [N-[(1S)-1-(1H-1,3-benzodiazol-2-yl)-2-[3-cyano-4-(1,1,3-trioxo-1,2-thiazolidin-5-yl)phenyl]ethyl]benzenesulfonamide] | 31 |
| C#Cc1cc(C[C@H](NS(=O)(=O)c2ccccc2)c2nc3ccccc3[nH]2)ccc1C1CC(=O)NS1(=O)=O (stereo partly drawn) [N-[(1S)-1-(1H-1,3-benzodiazol-2-yl)-2-[3-ethynyl-4-(1,1,3-trioxo-1,2-thiazolidin-5-yl)phenyl]ethyl]benzenesulfonamide] | 120 |
| O=C1CC(c2ccc(C[C@H](NS(=O)(=O)c3ccccc3)c3nc4ccccc4[nH]3)cc2F)S(=O)(=O)N1 (stereo partly drawn) [N-[(1S)-1-(1H-1,3-benzodiazol-2-yl)-2-[3-fluoro-4-(1,1,3-trioxo-1,2-thiazolidin-5-yl)phenyl]ethyl]benzenesulfonamide] | 34 |
| O=C1CC(c2ccc(C[C@H](NC(=O)C(F)(F)c3ccccc3)c3nc4ccccc4[nH]3)cc2)S(=O)(=O)N1 (stereo partly drawn) [N-[(1S)-1-(1H-1,3-benzodiazol-2-yl)-2-[4-(1,1,3-trioxo-1,2-thiazolidin-5-yl)phenyl]ethyl]-2,2-difluoro-2-phenylacetamide] | 200 |
| CC(F)(F)C(=O)N[C@@H](Cc1ccc(C2CC(=O)NS2(=O)=O)cc1)c1nc2ccccc2[nH]1 (stereo partly drawn) [N-[(1S)-1-(1H-1,3-benzodiazol-2-yl)-2-[4-(1,1,3-trioxo-1,2-thiazolidin-5-yl)phenyl]ethyl]-2,2-difluoropropanamide] | 300 |

Next, values leading:

| IC50 [nM] | Compound |
| --- | --- |
| 210 | O=C1CC(c2ccc(C[C@H](NS(=O)(=O)c3cc(C(F)(F)F)ccc3C(F)(F)F)c3nc4ccccc4[nH]3)cc2)S(=O)(=O)N1 (stereo partly drawn) [N-[(1S)-1-(1H-1,3-benzodiazol-2-yl)-2-[4-(1,1,3-trioxo-1,2-thiazolidin-5-yl)phenyl]ethyl]-2,5-bis(trifluoromethyl)benzene-1-sulfonamide] |
| 170 | O=C1CC(c2ccc(C[C@H](NS(=O)(=O)c3ccc(C(F)(F)F)cc3Br)c3nc4ccccc4[nH]3)cc2)S(=O)(=O)N1 (stereo partly drawn) [N-[(1S)-1-(1H-1,3-benzodiazol-2-yl)-2-[4-(1,1,3-trioxo-1,2-thiazolidin-5-yl)phenyl]ethyl]-2-bromo-4-(trifluoromethyl)benzene-1-sulfonamide] |
| 160 | O=C1CC(c2ccc(C[C@H](NS(=O)(=O)c3ccccc3Cl)c3nc4ccccc4[nH]3)cc2)S(=O)(=O)N1 (stereo partly drawn) [N-[(1S)-1-(1H-1,3-benzodiazol-2-yl)-2-[4-(1,1,3-trioxo-1,2-thiazolidin-5-yl)phenyl]ethyl]-2-chlorobenzene-1-sulfonamide] |
| 300 | Cc1ccccc1S(=O)(=O)N[C@@H](Cc1ccc(C2CC(=O)NS2(=O)=O)cc1)c1nc2ccccc2[nH]1 (stereo partly drawn) [N-[(1S)-1-(1H-1,3-benzodiazol-2-yl)-2-[4-(1,1,3-trioxo-1,2-thiazolidin-5-yl)phenyl]ethyl]-2-methylbenzene-1-sulfonamide] |
| 3200 | CC(C)C(=O)N[C@@H](Cc1ccc(C2CC(=O)NS2(=O)=O)cc1)c1nc2ccccc2[nH]1 (stereo partly drawn) [N-[(1S)-1-(1H-1,3-benzodiazol-2-yl)-2-[4-(1,1,3-trioxo-1,2-thiazolidin-5-yl)phenyl]ethyl]-2-methylpropanamide] |
| 51 | O=C1CC(c2ccc(C[C@H](NS(=O)(=O)c3cc(Cl)cc(Cl)c3)c3nc4ccccc4[nH]3)cc2)S(=O)(=O)N1 (stereo partly drawn) [N-[(1S)-1-(1H-1,3-benzodiazol-2-yl)-2-[4-(1,1,3-trioxo-1,2-thiazolidin-5-yl)phenyl]ethyl]-3,5-dichlorobenzene-1-sulfonamide] |
| 220 | O=C1CC(c2ccc(C[C@H](NS(=O)(=O)c3cccc(Oc4ccc(C(F)(F)F)cc4)c3)c3nc4ccccc4[nH]3)cc2)S(=O)(=O)N1 (stereo partly drawn) [N-[(1S)-1-(1H-1,3-benzodiazol-2-yl)-2-[4-(1,1,3-trioxo-1,2-thiazolidin-5-yl)phenyl]ethyl]-3-[4-(trifluoromethyl)phenoxy]benzene-1-sulfonamide] |
| 66 | O=C1CC(c2ccc(C[C@H](NS(=O)(=O)c3cccc(F)c3)c3nc4ccccc4[nH]3)cc2)S(=O)(=O)N1 (stereo partly drawn) [N-[(1S)-1-(1H-1,3-benzodiazol-2-yl)-2-[4-(1,1,3-trioxo-1,2-thiazolidin-5-yl)phenyl]ethyl]-3-fluorobenzene-1-sulfonamide] |

same assay, conditions: pH 7; 22 °C

| IC50 [nM] | Compound |
| --- | --- |
| 33000 | NC(=O)[C@H](Cc1ccccc1)NC(=O)[C@@H](NC(=O)Cc1ccc(C(F)(F)P(=O)(O)O)cc1)C(=O)O [(2R)-2-{[(1S)-1-carbamoyl-2-phenylethyl]carbamoyl}-2-(1-{4-[difluoro(phosphono)methyl]phenyl}acetamido)acetic acid] |
| 0.4 | NC(=O)[C@H](Cc1ccc(C(F)(F)P(=O)(O)O)cc1)NC(=O)[C@@H](NC(=O)Cc1ccc(C(F)(F)P(=O)(O)O)cc1)C(=O)O [(2R)-2-{[(1S)-1-carbamoyl-2-{4-[difluoro(phosphono)methyl]phenyl}ethyl]carbamoyl}-2-(1-{4-[difluoro(phosphono)methyl]phenyl}acetamido)acetic acid] |
| 1800 | O=C1C[C@@H](c2ccc(C[C@H](Nc3nc4c(F)cc(Cl)cc4s3)c3nc4ccccc4[nH]3)cc2)S(=O)(=O)N1 [(5S)-5-{4-[(2S)-2-(1H-1,3-benzodiazol-2-yl)-2-[(6-chloro-4-fluoro-1,3-benzothiazol-2-yl)amino]ethyl]phenyl}-1,2-thiazolidine-1,1,3-trione] |
| 42 | NC(=O)[C@H](Cc1ccc(C(F)(F)P(=O)(O)O)cc1)NC(=O)CNC(=O)Cc1ccc(C(F)(F)P(=O)(O)O)cc1 [({4-[(2S)-2-carbamoyl-2-[2-(1-{4-[difluoro(phosphono)methyl]phenyl}acetamido)acetamido]ethyl]phenyl}difluoromethyl)phosphonic acid] |
| 1.7 | NC(=O)[C@H](Cc1ccc(C(F)(F)P(=O)(O)O)cc1)NC(=O)[C@H](Cc1ccccc1)NC(=O)Cc1ccc(C(F)(F)P(=O)(O)O)cc1 [({4-[(2S)-2-carbamoyl-2-[(2S)-2-(1-{4-[difluoro(phosphono)methyl]phenyl}acetamido)-3-phenylpropanamido]ethyl]phenyl}difluoromethyl)phosphonic acid] |
| 1700 | CC(=O)N[C@@H](Cc1ccccc1)C(=O)N[C@@H](Cc1ccc(C(F)(F)P(=O)(O)O)cc1)C(N)=O [DFMP 5] (Ac-Phe-[F2Pmp]-NH2) |
